Among the data in ChEMBL document CHEMBL1212848 (Bioorg Med Chem, 2010) are Time, Activity and Ki values, retold here.

One data set relates to HeLa. The experiment in a line: Cellular uptake in human HeLa cells assessed as retention time at 2 uM after 48 hrs by HPLC-MS analysis. It is filed as ADME, cell-based.
Data set [1] concerns MCF7. Nature of the data set: Cytotoxicity against human MCF7 cells assessed as reduction of cell proliferation at 1 nM to 1 uM after 96 hrs by MTT assay. The format is functional, cell-based.
The subject of data set [2] is MCF7. The experiment in a line: Cytotoxicity against human MCF7 cells assessed as reduction of cell proliferation at 6 uM after 96 hrs by MTT assay. It is filed as functional, cell-based.
The test system of data set [3] is Cancer cell lines. The experiment in a line: Cytotoxicity against human cervical cancer cells assessed as reduction of [3H]thymidine incorporation at 2 uM after 24 to 48 hrs by scintillation counting. It is filed as functional, cell-based.
The subject of data set [4] is Cancer cell lines. The experiment in a line: Cytotoxicity against human cervical cancer cells assessed as reduction of [3H]thymidine incorporation at 5 nM after 24 to 48 hrs by scintillation counting. The format is functional, cell-based.
In a further data set the target is T1, Estrogen receptor (Homo sapiens, UniProt P03372).
T1 sequence (P03372 whole entry): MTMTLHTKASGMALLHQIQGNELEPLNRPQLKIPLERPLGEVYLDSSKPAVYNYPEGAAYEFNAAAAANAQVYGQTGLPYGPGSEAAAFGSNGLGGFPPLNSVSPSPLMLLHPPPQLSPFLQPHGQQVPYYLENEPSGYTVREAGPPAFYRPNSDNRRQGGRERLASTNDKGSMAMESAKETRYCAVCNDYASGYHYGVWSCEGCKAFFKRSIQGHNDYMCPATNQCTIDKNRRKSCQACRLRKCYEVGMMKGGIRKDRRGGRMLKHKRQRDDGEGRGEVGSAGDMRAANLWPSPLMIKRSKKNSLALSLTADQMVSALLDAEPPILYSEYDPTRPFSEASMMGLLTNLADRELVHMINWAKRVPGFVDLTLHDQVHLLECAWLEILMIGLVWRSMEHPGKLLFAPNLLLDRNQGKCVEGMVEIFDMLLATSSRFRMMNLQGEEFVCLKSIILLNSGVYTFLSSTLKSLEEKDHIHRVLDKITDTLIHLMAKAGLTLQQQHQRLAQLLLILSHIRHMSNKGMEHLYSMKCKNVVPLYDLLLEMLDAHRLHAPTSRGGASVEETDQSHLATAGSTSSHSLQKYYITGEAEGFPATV
The experiment in a line: biochemical.

Data set [5] has as its target T2, Estrogen receptor (Homo sapiens) (UniProt P03372).
T2 sequence (whole entry): T1 sequence (P03372 whole entry)
Nature of the data set: Agonist activity at human ERalpha expressed in human HeLa cells coexpressing ERE-E1b-Luc assessed as transcriptional activation after 48 hrs by luciferase reporter gene assay relative to estradiol. It is filed as functional, cell-based.

Activity calls are given as the source filed them. The calls are words filed in the database; no cut-off is given here.

With `CCCC[N+](C)(C)CCOc1ccc(/C(=C(/CC)c2ccccc2)c2ccccc2)cc1.[Br-]` [TAMOXIFEN BUTYL BROMIDE], in the data set on HeLa, the Time was 10 min. For the same molecule, the result in the data set on MCF7 [1] and with Cancer cell lines [3] was inactive. Moreover, the outcome in the data set with MCF7 [2] and in the data set on Cancer cell lines [4] was Active. For the same molecule, affinity at Estrogen receptor was put at a Ki of 13 nM.
Turning to `CC/C(=C(\c1ccccc1)c1ccc(OCC[N+](C)(C)CC)cc1)c1ccccc1.[Br-]` [TAMOXIFEN ETHYL BROMIDE], the Time in the data set with HeLa is recorded as 8 min. In addition, in the data set on MCF7 [1], the result was inactive. Further, the result in the data set with MCF7 [2] was Active. In addition, the Ki on Estrogen receptor was determined as 13.7 nM.
Take `CC/C(=C(\c1ccccc1)c1ccc(OCC[N+](C)(C)C(C)C)cc1)c1ccccc1.[Br-]` [TAMOXIFEN ISOPROPYL BROMIDE]: the Time in the data set with HeLa is 10 min. In addition, the Activity in data set [5] was 50%. Moreover, the outcome in the data set with MCF7 [1] and in the data set with Cancer cell lines [3] was inactive. In addition, the outcome with MCF7 [2] and in the data set on Cancer cell lines [4] was Active. In addition, the Ki at Estrogen receptor came to 25.4 nM.
`CC/C(=C(\c1ccccc1)c1ccc(OCC[N+](C)(C)C)cc1)c1ccccc1.[I-]` [TAMOXIFEN METHYL IODIDE]: the Time in the data set on HeLa is listed as 5 min. Moreover, the result in the data set on MCF7 [1] was inactive. Also, the outcome with MCF7 [2] was Active. Besides, the Ki on Estrogen receptor came to 46.3 nM.
Turning to `CCC[N+](C)(C)CCOc1ccc(/C(=C(/CC)c2ccccc2)c2ccccc2)cc1.[Br-]` [TAMOXIFEN PROPYL BROMIDE], the Time in the data set with HeLa came out at 9 min. Moreover, in the data set with MCF7 [1], the result was inactive. The outcome in the data set with MCF7 [2] was Active.
As for `CC/C(=C(\c1ccccc1)c1ccc(OCCN(C)C)cc1)c1ccccc1` [TAMOXIFEN], the Time in the data set with HeLa came out at 9 min. Moreover, the outcome with MCF7 [1] was inactive. Besides, in the data set on MCF7 [2], the outcome was Active.
